Results taken from patent EP0408973B1, “Antiherpes pentapeptides” (BIO-MEGA/BOEHRINGER INGELHEIM RESEARCH INC., priority 1989, dated 1991).
Starred links: 1 amine or outer side, 2 acyl side, 3 side chain; linkers in the order of their positions; H or OH if unused. Non-standard residues stand in square brackets, D forms with d. Residues, ends and D or L forms follow the SMILES beside them. *: point of attachment. Ala(1H-tetrazol-5-yl) = N[C@@H](Cc1nnn[nH]1)C(=O)O; X1 = CC(C)[C@@H](C(=O)[*:2])N(CCc1ccccc1)[*:1]; Benzoyl(2-Ph) = O=C(c1ccccc1-c1ccccc1)*; Desaminotyrosyl = O=C(CCc1ccc(O)cc1)*; Butanoyl(4-Ph) = O=C(CCCc1ccccc1)*; Hydrocinnamoyl = O=C(CCc1ccccc1)*; Pentanoyl(4-Me) = CC(C)CCC(=O)*; X3 = CC(C)C[C@H](N*)c1nnn[nH]1; X2 = O=C(c1ccccc1Cc1ccccc1)*; NMeV = CN[C@H](C(=O)O)C(C)C

Molecular target: HSV-1 ribonucleotide reductase (Human herpesvirus 1, UniProt P08543)
Sequence (P08543 whole entry): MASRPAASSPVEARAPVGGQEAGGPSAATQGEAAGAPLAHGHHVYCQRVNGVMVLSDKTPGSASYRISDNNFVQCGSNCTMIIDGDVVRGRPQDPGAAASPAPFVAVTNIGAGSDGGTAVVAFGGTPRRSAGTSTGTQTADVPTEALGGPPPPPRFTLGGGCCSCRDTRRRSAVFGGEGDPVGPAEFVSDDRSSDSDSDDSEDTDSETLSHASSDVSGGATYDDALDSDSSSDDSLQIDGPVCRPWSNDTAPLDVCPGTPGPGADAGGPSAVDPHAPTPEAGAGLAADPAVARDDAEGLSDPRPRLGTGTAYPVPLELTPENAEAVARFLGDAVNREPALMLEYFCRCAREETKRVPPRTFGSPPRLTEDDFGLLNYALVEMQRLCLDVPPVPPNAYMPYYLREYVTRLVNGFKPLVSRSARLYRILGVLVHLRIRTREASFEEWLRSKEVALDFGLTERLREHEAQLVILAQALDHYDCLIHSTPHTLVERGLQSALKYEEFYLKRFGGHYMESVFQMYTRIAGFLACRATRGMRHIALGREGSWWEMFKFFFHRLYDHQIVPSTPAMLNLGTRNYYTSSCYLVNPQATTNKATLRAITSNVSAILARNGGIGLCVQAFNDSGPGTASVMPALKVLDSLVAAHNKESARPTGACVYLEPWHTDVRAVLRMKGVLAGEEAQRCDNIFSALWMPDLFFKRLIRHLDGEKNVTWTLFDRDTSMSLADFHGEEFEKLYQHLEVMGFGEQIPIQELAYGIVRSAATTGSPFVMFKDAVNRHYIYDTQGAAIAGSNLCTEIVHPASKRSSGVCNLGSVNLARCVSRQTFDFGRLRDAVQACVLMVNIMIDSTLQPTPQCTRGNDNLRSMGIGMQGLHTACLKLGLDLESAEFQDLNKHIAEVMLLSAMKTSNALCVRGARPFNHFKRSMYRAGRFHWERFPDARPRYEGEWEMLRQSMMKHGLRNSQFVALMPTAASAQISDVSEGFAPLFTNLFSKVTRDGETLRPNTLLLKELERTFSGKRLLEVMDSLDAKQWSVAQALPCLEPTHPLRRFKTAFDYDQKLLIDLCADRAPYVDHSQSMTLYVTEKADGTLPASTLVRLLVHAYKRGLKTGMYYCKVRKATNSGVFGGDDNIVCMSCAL
Experiment: biochemical
From the text: Inhibition of Herpes Simplex Virus (HSV, type 1) Ribonucleotide Reductase
• a) Preparation of Enzyme HSV-1 ribonucleotide reductase (partially purified) was obtained from quiescent BHK-21/C13 cells infected with strain F HSV-1 virus at 10 plaque forming units/cell as described by E.A. Cohen et al., J. Gen. […] The number of units of the enzyme preparation used in each assay was constant, based on the specific activity of the enzyme preparation.

Question: For `CC[C@H](C)[C@H](NC(=O)[C@H](C(C)C)N(CCc1ccccc1)C(C)=O)C(=O)N[C@@H](CC(N)=O)C(=O)N[C@@H](CC(=O)O)C(=O)N[C@@H](CC(C)C)C(=O)O` [CH3CO / PhCH2CH2 / CONH2 / COOH] (Ac-[X1]INDL-OH), which IC50 is on record?
Answer: Its IC50 is 17 µM.

Question: With `CC[C@H](C)[C@H](NC(=O)[C@H](C(C)C)N(C)C(=O)CCc1ccccc1)C(=O)N[C@@H](Cc1nnn[nH]1)C(=O)N[C@@H](CC(=O)O)C(=O)N[C@@H](CC(C)C)C(=O)O` [PhCH2CH2CO / CH3 / 5-1H-t / COOH, PhCH2CH2CO-N-Me-Val-Ile-NHCH[CH2-5-1H-tetrazole]CO-Asp-Leu-OH] (Hydrocinnamoyl-[NMeV]I[Ala(1H-tetrazol-5-yl)]DL-OH) as the compound, how does the IC50 read?
Answer: Its IC50 is 2 µM.

Question: With `CC[C@H](C)[C@H](NC(=O)[C@H](C(C)C)N(C)C(=O)CCC(C)C)C(=O)N[C@@H](CC(N)=O)C(=O)N[C@@H](CC(=O)O)C(=O)N[C@@H](CC(C)C)C(=O)O` [(CH3)2CHCH2CH2CO / CH3 / CONH2 / COOH] ({Pentanoyl(4-Me)}-[NMeV]INDL-OH) as the compound, how does the IC50 read?
Answer: Its IC50 is 7.6 µM.

Question: How did the IC50 turn out when `CC[C@H](C)[C@H](NC(=O)[C@H](C(C)C)N(C)C(=O)c1ccccc1-c1ccccc1)C(=O)N[C@@H](CC(N)=O)C(=O)N[C@@H](CC(=O)O)C(=O)N[C@@H](CC(C)C)C(=O)O` ({Benzoyl(2-Ph)}-[NMeV]INDL-OH) was run?
Answer: The IC50 was 2.5 µM.

Question: For `CC[C@H](C)[C@H](NC(=O)[C@H](C(C)C)N(C)C(=O)CCCc1ccccc1)C(=O)N[C@@H](CC(N)=O)C(=O)N[C@@H](CC(=O)O)C(=O)N[C@@H](CC(C)C)C(=O)O` [PhCH2CH2CH2CO / CH3 / CONH2 / COOH] ({Butanoyl(4-Ph)}-[NMeV]INDL-OH), which IC50 is on record?
Answer: Its IC50 is 6.2 µM.

Question: Which IC50 does the source give for `CC[C@H](C)[C@H](NC(=O)[C@H](C(C)C)N(C)C(=O)CCc1ccc(O)cc1)C(=O)N[C@@H](CC(N)=O)C(=O)N[C@@H](CC(=O)O)C(=O)N[C@@H](CC(C)C)C(=O)O` [DAT / CH3 / CONH2 / COOH, DAT-N-Me-Val-Ile-Asn-Asp-Leu-OH] (Desaminotyrosyl-[NMeV]INDL-OH) here?
Answer: Its IC50 is 6 µM.

Question: With `CC[C@H](C)[C@H](NC(=O)[C@H](C(C)C)N(C)C(=O)CCc1ccccc1)C(=O)N[C@@H](CC(N)=O)C(=O)N[C@@H](CC(=O)O)C(=O)N[C@@H](CC(C)C)c1nnn[nH]1` [PhCH2CH2CO / CH3 / CONH2 / 5-1H-t, PhCH,CH,CO-N-Me-Val-Ile-Asn-Asp-NHCH[CH2-CH(CH3)2]-5-1H-tetrazole] (Hydrocinnamoyl-[NMeV]IND-X3) as the compound, how does the IC50 read?
Answer: The IC50 was 3.8 µM.

Question: How did the IC50 turn out when `CC[C@H](C)[C@H](NC(=O)[C@H](C(C)C)N(C)C(=O)c1ccccc1Cc1ccccc1)C(=O)N[C@@H](CC(N)=O)C(=O)N[C@@H](CC(=O)O)C(=O)N[C@@H](CC(C)C)C(=O)O` (X2-[NMeV]INDL-OH) was run?
Answer: The IC50 was 5.5 µM.
